Reference: the supplement of paper PMC11208160

Experiment: recombinant barcode read abundance after kanamycin selection (control-corrected) (log10(CPM+1)); higher = more efficient recombination; sequences stand for … in AGTGCAGAGAAAATCGGCCAGTTTTCTCTGCCTGCAGTCCGCATGCCGT…AGATTTATGCAGCGGACTGCCTTTCTCCCAAAGTGATAAACCGGACAGTATCATGGACCGGTTTTCCCGGTAATCCGTATTTGCAAGGTTGGTTTCACT; site = the 11-nt target
Experimental: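 Pooled E. coli target-specificity screen for the IS621 bridge recombinase. Each library plasmid pairs an 11-nt target (CT core) with a bridge RNA whose target-binding loop (9-nt LTG + 4-nt RTG) is reprogrammed; the rest of the 177-nt WT IS621 bridge RNA scaffold is fixed. The plasmid is co-electroporated with a WT donor plasmid; recombinase is induced with 0.1 mM IPTG and recombinants are selected on kanamycin. Recombinant barcodes are sequenced, converted to CPM, averaged over two biological replicates and corrected by the unselected control CPM. Molecule = full bridge RNA written as DNA: LTG = specificity nt 1-9, RTG = reverse complement of specificity nt 8-11, in the WT scaffold.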
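Further: IS621 recombinase and bridge RNA in Escherichia coli cells.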

Row | Sequence | recombinant barcode read abundance (log10)
1 | AAACTCGCTTGGGTTCTAACCTGTTGCCT (site AAACTCGCTAG) | 1.8
2 | AAATGGGCTTGGGTTCTAACCTGTTGCGG (site AAATGGGCTCC) | 2.5
3 | AAATGGGCTTGGGTTCTAACCTGTTGCGG (site AGATGAGCTCC) | 0.166
4 | AACAAGACTTGGGTTCTAACCTGTTGCCT (site AACAAGACTAG) | 1.29
5 | AACAAGACTTGGGTTCTAACCTGTTGCCT (site GTACGACCTGT) | 0.274
6 | AACAATACTTGGGTTCTAACCTGTTGCCT (site AACAATACTAG) | 0.438
7 | AACAATACTTGGGTTCTAACCTGTTGCCT (site CTGTGAGCTCT) | 0.0738
8 | AACACGACTTGGGTTCTAACCTGTTGCCT (site AACACGACTAG) | 0.711
9 | AACACGACTTGGGTTCTAACCTGTTGCCT (site GACAGGACTAG) | 0.165
10 | AACACTGCTTGGGTTCTAACCTGTTGCCT (site AACAATGCTAG) | 0.0705
11 | AACACTGCTTGGGTTCTAACCTGTTGCCT (site AACACTGCTAG) | 1.09
12 | AACACTGCTTGGGTTCTAACCTGTTGCCT (site AACAGTGCTAG) | 0
13 | AACACTGCTTGGGTTCTAACCTGTTGCCT (site AACATTGCTAG) | 0.0625
14 | AACAGTACTTGGGTTCTAACCTGTTGCCT (site AACAGTACTAG) | 0.845
15 | AACAGTACTTGGGTTCTAACCTGTTGCCT (site CACAGTACTAG) | 0.406
16 | AACAGTACTTGGGTTCTAACCTGTTGCCT (site GACAGTACTAG) | 0.129

Row | Sequence | recombinant barcode read abundance (log10)
17 | AACAGTACTTGGGTTCTAACCTGTTGCCT (site TACAGTACTAG) | 0.17
18 | AACATAACTTGGGTTCTAACCTGTTGCGT (site AACATAACTAC) | 1.34
19 | AACATAACTTGGGTTCTAACCTGTTGCGT (site TGTTGTCCTCA) | 0.0331
20 | AACCCTACTTGGGTTCTAACCTGTTGCCT (site AACCCTACTAG) | 0.929
21 | AACCCTACTTGGGTTCTAACCTGTTGCCT (site CACCCTACTAG) | 0.328
22 | AACCCTACTTGGGTTCTAACCTGTTGCCT (site GACCCTACTAG) | 0.0455
23 | AACCCTACTTGGGTTCTAACCTGTTGCCT (site TACCCTACTAG) | 0.193
24 | AACCGCCCTTGGGTTCTAACCTGTTGCCT (site AACCGCCCTAC) | 0.899
25 | AACCGCCCTTGGGTTCTAACCTGTTGCCT (site AACCGCCCTAG) | 0.478
26 | AACGACGCTTGGGTTCTAACCTGTTGCCT (site AACGACGCTAG) | 1.02
27 | AACGACGCTTGGGTTCTAACCTGTTGCCT (site ACCGAGGCTAG) | 0.0126
28 | AACGCCTCTTGGGTTCTAACCTGTTGCCT (site AACGCCTCTAG) | 0.389
29 | AACGCCTCTTGGGTTCTAACCTGTTGCCT (site CACGCCTCTAG) | 0.125
30 | AACGCCTCTTGGGTTCTAACCTGTTGCCT (site GACGCCTCTAG) | 0.178
31 | AACGCCTCTTGGGTTCTAACCTGTTGCCT (site TACGCCTCTAG) | 0.274
32 | AACGTGTCTTGGGTTCTAACCTGTTGCCT (site AAAGTGTCTAG) | 0.375
